These results are taken from publication PMC6941357, “An in vitro toolbox to accelerate anti-malarial drug discovery and development” (Malaria Journal, 2020).

As usually defined, the Papp A→B is how fast a substance crosses the layer from the apical side. Read a high Papp A→B as ready permeation. One may read the fraction unbound as free concentration divided by total concentration. By solubility is commonly meant the concentration that dissolves in the medium under given conditions. Higher therefore signals much dissolved substance. Usually IC50 stands for the concentration at which inhibition is half-maximal. Low values mean greater potency in that assay, high ones weaker potency in that assay. Broadly, the inhibition is the drop in the measured response relative to a control, in per cent. For orientation: Ki means the dissociation constant of the complex between target and ligand, obtained from inhibition or displacement. A high value points to lower affinity. The Papp B→A is the apparent permeability from the basolateral to the apical side of a cell layer. A word on the efflux ratio: it is a quotient of directional permeabilities that is used to spot active efflux.

A short description of series [1]: Bidirectional permeability across Caco-2 cell monolayers. Particulars: human. An outline of the steps: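 Donor and acceptor concentrations measured by LC–MS to give Papp, mass balance and efflux ratio (mean B–A over A–B Papp). Media were pH 7.4 HEPES-buffered HBSS or human plasma on both sides; for plasma, Papp used the donor fraction unbound. Donor contained 0.1% v/v DMSO.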

Series [2] can be described thus: Plasma protein binding via rapid equilibrium dialysis (RED), 10% plasma. As to conditions: human, 10% pooled plasma (diluted 1:10), pH 7.4, RED, 10% plasma corrected for dilution; for fraction unbound at 6 h: 6 h dialysis. It is filed as in vitro ADME, human. An outline of the steps: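 Fraction unbound in undiluted plasma was derived from mean total and unbound levels measured in 10% plasma. That plasma was pooled from 3–4 donors, diluted in pH 7.4 phosphate/0.04 M NaCl buffer, spiked at ~1000–3000 ng/mL and equilibrium-dialysed at 37 °C in pre-saturated RED devices, n = 3–4.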

A short description of series [3]: Solubility in biorelevant media. As to conditions: for FaSSGF solubility / solubility at 1 h: FaSSGF; for solubility at 1 h: 37 °C, fassgf or other biorelevant; for solubility at 1 h / solubility: thermodynamic from solid. An outline of the steps:
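LC–MS quantification of supernatants, after two centrifugations, in triplicate against calibration standards. Media: FaSSGF sampled at 1 h; FaSSIF-V2, FeSSIF-V2 and pH 7.4 PBS sampled at 5–6 h; all at 37 °C on an orbital mixer at 600 rpm.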

Series [4] is described as follows: Binding to human liver microsomes via ultracentrifugation. It is filed as in vitro ADME. As to conditions: human, pH 7.4, 0.4 mg/mL protein, read-out: Fraction unbound, HLM. An outline of the steps: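 Unbound fraction by ultracentrifugation: Cunbound measured in protein-free supernate, Ctotal from spiked tubes held at 37 °C, sampled at start and end to check degradation. Matrix was 0.4 mg/mL human liver microsomal protein, 0.1 M phosphate pH 7.4; matrix-matched analysis against one calibration curve.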
Background: Microsomes from liver hold many membrane-bound enzymes, among them those of drug oxidation.

The target in the next series is CYP2C19 (Homo sapiens, UniProt P33261). The series is described as follows: Cytochrome P450 inhibition in human liver microsomes. An outline of the steps: (§1)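 Substrate-specific interaction method in human liver microsomes: the test compound's effect on production of a single isoform-dependent metabolite, quantified by LC–MS using diazepam as internal standard, is reported as percent inhibition of enzyme activity. Substrate Km was determined under the same incubation conditions.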
CYP2C19, sequence (P33261 whole entry, canonical isoform): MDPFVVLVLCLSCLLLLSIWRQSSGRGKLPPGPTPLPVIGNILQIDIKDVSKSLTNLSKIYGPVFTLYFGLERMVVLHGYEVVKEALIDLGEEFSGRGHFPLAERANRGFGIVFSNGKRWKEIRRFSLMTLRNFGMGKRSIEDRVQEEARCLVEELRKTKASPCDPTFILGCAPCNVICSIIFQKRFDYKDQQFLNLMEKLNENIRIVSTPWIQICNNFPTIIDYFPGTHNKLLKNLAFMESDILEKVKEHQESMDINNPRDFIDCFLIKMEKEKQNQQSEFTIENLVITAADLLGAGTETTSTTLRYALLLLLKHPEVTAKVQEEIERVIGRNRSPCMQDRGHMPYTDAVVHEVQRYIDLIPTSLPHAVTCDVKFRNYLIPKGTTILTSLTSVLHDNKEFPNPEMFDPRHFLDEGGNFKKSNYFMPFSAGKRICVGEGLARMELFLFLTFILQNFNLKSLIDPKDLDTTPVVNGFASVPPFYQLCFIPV

The target of the next series is CYP2C9 (Homo sapiens, UniProt P11712). The description is as above. Particulars: for CYP2C9 % inhibition at max conc: microsomes. In short, it runs like this: as §1
CYP2C9, sequence (P11712 whole entry): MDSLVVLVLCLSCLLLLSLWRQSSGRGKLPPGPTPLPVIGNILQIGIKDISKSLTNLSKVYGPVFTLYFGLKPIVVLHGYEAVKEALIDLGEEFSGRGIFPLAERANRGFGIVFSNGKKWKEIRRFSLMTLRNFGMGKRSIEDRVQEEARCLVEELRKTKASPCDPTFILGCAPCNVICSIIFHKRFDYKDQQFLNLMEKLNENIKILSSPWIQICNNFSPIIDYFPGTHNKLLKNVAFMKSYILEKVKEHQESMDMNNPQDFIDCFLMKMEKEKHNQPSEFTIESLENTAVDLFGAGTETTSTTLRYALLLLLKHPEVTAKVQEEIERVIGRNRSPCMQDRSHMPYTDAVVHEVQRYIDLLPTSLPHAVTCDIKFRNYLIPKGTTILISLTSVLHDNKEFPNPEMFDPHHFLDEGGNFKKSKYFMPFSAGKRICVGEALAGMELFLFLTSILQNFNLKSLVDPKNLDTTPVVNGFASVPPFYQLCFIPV
In a further series the target is CYP3A4 (Homo sapiens, UniProt P08684). The series is described as above. As to conditions: for IC50: highest concentration tested 20 µM; for inhibition at 20 µM: human; for inhibition at 20 µM / CYP3A4 (test) % inhibition at max conc: microsomes. An outline of the steps: as §1
CYP3A4, sequence (P08684 whole entry): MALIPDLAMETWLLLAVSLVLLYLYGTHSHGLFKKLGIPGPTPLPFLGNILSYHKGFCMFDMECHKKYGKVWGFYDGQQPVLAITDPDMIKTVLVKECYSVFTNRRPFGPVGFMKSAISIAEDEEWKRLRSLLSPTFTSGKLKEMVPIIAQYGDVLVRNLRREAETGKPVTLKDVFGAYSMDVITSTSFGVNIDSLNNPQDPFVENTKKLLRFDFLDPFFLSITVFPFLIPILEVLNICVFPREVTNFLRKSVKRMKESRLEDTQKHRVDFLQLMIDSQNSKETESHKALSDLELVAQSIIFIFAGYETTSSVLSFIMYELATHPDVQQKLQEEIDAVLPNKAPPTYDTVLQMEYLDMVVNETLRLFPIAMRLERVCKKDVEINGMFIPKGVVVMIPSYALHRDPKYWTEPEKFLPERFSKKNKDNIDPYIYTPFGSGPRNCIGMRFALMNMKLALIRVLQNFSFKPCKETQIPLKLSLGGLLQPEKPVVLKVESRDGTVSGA
Where [5] appears, read: Caco-2, A–B Papp, matrix: human plasma, corrected for fu.
Setting [6] is: phosphate buffered saline pH 7.4, 37 °C, pH 7.4, aqueous buffer.
Setting [7] is: CYP3A4 (midaz) IC50, human liver microsomes, CYP3A4 (midaz).
The mark [8] stands for this setting: CYP3A4 (test) IC50, human liver microsomes, CYP3A4 (test).
Where [9] appears, read: pH 7.4, CYP3A4 (midaz) % inhibition at max conc.

“And” between values parts separate entries of the source, which are not always exact repeats. Equal entries are not always repeated. Where two headings read alike, the source gives them in different places.

The compound `COc1cc(C)c2c(Oc3cccc(C(F)(F)F)c3)c(OC)cc(NC(C)CCCN)c2n1` (centres unmarked) [Tafenoquine] gave a Papp A→B in series [1] (setting [5]) of more than 300 ×10⁻⁶ cm/s. The same compound registered an unbound share (fraction unbound) at 6 h in series [2] of less than 0.0007. In series [2] (presaturation of device and 24 h dialysis), this compound showed a fraction unbound at 24 h of 0.0007 ± 0.00017. The compound also gave a FaSSGF solubility in series [3] of more than 2000 µg/mL. The solubility at 1 h in series [3] was > 2000 µg/mL and > 2800 µM. In addition, the solubility is 15.8 µg/mL and 34.1 µM in series [3] (FaSSIF-V2, 37 °C, fassif); 1310 µg/mL and 2820 µM in series [3] (FeSSIF-V2, 37 °C, fessif); 18.3 µg/mL and 39.5 µM in series [3] (setting [6]). Also, in series [4] (liver microsomes), the fraction unbound at […] is 0.002 ± 0.0003. The IC50 is more than 20 µM against CYP2C19, 14 µM at CYP2C9, more than 20 µM against CYP3A4 (setting [7]) and 3.8 µM against CYP3A4 (setting [8]). Also, the inhibition at 20 µM on CYP2C19 (human, microsomes, pH 7.4) stood at 42%; at CYP3A4 (setting [9]), 40%. Moreover, the Ki on CYP2C9 stood at 10 µM; on CYP3A4 (CYP3A4 (test) Ki, human liver microsomes, CYP3A4 (test)), 2.3 µM.
In turn, `CC(C)(N)CNC(=O)C[C@H]1CC[C@]2(CC1)OO[C@]1(O2)C2CC3CC(C2)CC1C3` [OZ277, Arterolane] returned a Papp B→A in series [1] (Caco-2) of 70 ± 0.38 ×10⁻⁶ cm/s. Also, the Papp A→B in series [1] (setting [5]) was 42 ± 2.8 ×10⁻⁶ cm/s. In series [2], this compound returned a fraction unbound at 6 h of 0.056. Also, the FaSSGF solubility in series [3] was more than 2000 µg/mL. Further, in series [3], the solubility at 1 h was > 2000 µg/mL and > 5000 µM. In series [3] (FaSSIF), this compound returned a FaSSIF solubility of more than 2000 µg/mL. In addition, the solubility is > 2000 µg/mL and > 5100 µM in series [3] (FaSSIF-V2, 37 °C, fassif); > 2000 µg/mL and > 5000 µM in series [3] (FeSSIF-V2, 37 °C, fessif); 198 µg/mL and 504 µM in series [3] (setting [6]). In series [3] (FeSSIF), this compound yielded a FeSSIF solubility of more than 2000 µg/mL. The fraction unbound at […] in series [4] (microsomes) was 0.044 ± 0.005. Besides, the IC50 against CYP2C19, at CYP2C9, on CYP3A4 (setting [7]) and at CYP3A4 (setting [8]) was more than 20 µM in each case. Besides, the inhibition at 20 µM turned out to be 26% against CYP3A4 (setting [9]) and 46% at CYP3A4 (pH 7.4, CYP3A4 (test) % inhibition at max conc).
In series [1] (Caco-2), `COc1ccc2nc3cc(Cl)ccc3c(Nc3cc(CN4CCCC4)c(O)c(CN4CCCC4)c3)c2n1` [Pyronaridine] returned a Papp B→A of 41 ± 3 ×10⁻⁶ cm/s. In addition, the efflux ratio in series [1] (Caco-2) worked out at 2.6. The compound also came in with a Papp A→B in series [1] (setting [5]) of 16 ± 2.2 ×10⁻⁶ cm/s. The compound also gave a fraction unbound at 6 h in series [2] of 0.09 ± 0.012. The solubility at 1 h in series [3] was > 2000 µg/mL and > 3800 µM. Further, the solubility in series [3] (FaSSIF-V2, 37 °C, fassif) was > 2000 µg/mL and > 3860 µM; in series [3] (FeSSIF-V2, 37 °C, fessif), > 2000 µg/mL and > 3800 µM; in series [3] (setting [6]), 357 µg/mL and 689 µM. Also, the fraction unbound at […] in series [4] (liver microsomes) turned out to be 0.29 ± 0.018. Also, the IC50 against CYP2C19, on CYP2C9, on CYP3A4 (setting [7]) and against CYP3A4 (setting [8]) was more than 20 µM in each case. Besides, at CYP2C19 (microsomes), the “CYP2C19 % inhibition at max conc” value is “nmi”. Besides, the “CYP2C9 % inhibition at max conc” value on CYP2C9 was “nmi”. At CYP3A4 (setting [9]), this compound gave an inhibition at 20 µM of 28%. Also, the “CYP3A4 (test) % inhibition at max conc” value on CYP3A4 is recorded as “nmi”.
In the case of `CS(=O)(=O)c1ccc(-c2cnc(N)c(-c3ccc(C(F)(F)F)nc3)c2)cc1` [MMV048], the basolateral-to-apical permeability (Papp B→A) in series [1] (Caco-2, pH 7.4) was 53 ± 1.9 ×10⁻⁶ cm/s. The compound also returned a Papp A→B in series [1] (Caco-2, pH 7.4, A–B Papp, matrix: pH 7.4 buffer) of 41 ± 2.1 ×10⁻⁶ cm/s. Also, the fraction unbound at 6 h in series [2] amounted to 0.11 ± 0.007. For the same compound, the solubility at 1 h in series [3] is 1200 µg/mL and 3040 µM. The solubility in series [3] (FaSSIF-V2, 37 °C, fassif) was 6.73 µg/mL and 17.1 µM; in series [3] (FeSSIF-V2, 37 °C, fessif), 7.47 µg/mL and 19 µM; in series [3] (setting [6]) it was 4.52 µg/mL and 11.5 µM. The fraction unbound at […] in series [4] (liver microsomes) was found to be 0.61 ± 0.014. For the same compound, the IC50 against CYP2C19, at CYP2C9 and on CYP3A4 (setting [8]) was more than 20 µM each time. Moreover, the “CYP2C19 % inhibition at max conc” value at CYP2C19 (microsomes) is on record as “nmi”. In addition, the “CYP2C9 % inhibition at max conc” value on CYP2C9 is recorded as “nmi”. Moreover, on CYP3A4, the “CYP3A4 (test) % inhibition at max conc” value is on record as “nmi”.
